Marks after values point to notes of the source that are not given here.
Columns and labels:
[1] = test system: MDA-MB-436 cells; test: Prostaglandin E2 (PGE2) measurement; format: cell-based, human; conditions: 72-hour treatment, vectors MOI 1000 vp/cell, celecoxib 50 uM
Procedure: (§1) After a 72-hr incubation, 3 μl of arachidonic acid (1 mM) was added to the culture media to boost the PGE2 production for 30 minutes. The supernatant was collected and stored at −80° C. until PGE2 concentration was measured using an enzyme-linked immunoassay kit (Cayman Chemical, Ann Arbor, Mich.) according to the manufacturer's manual. The final results from the triplicated values were expressed as pg/ml.

[2] = test system: MCF7/Her18 cells; test: Prostaglandin E2 (PGE2) measurement; format: cell-based, human; conditions: 72-hour treatment, vectors MOI 2000 vp/cell, celecoxib 20 uM
Procedure: as §1

[3] = test system: MDA-MB-436 cells; test: Cell cycle and apoptosis assay (PI, Annexin V/FITC, TUNEL); format: cell-based, human
Text: (§2) All the cultures were subconfluent at the time of harvest. Harvested cells were fixed with ice-cold 80% ethanol, stained with propidium iodide (PI) (Sigma, St. Louis, Mo.), and analyzed using a flow cytometer (FCM) (EPICS XL-MCL, Coulter, Miami, Fla.) as described previously. Cells floating in the media and trypsinized adherent cells were harvested and pelleted. The collected cells were washed, and then stained with Annexin V-fluorescein isothiocyanate (FITC)/PI using an Annexin V/FITC apoptosis detection kit (BD Biosciences, Franklin Lake, N.J.). The BrdU (5-bromo-2-deoxyuridine)/terminal deoxynucleotidyl transferase (TdT)-mediated 2′-deoxyuridine 5′-triphosphate (dUTP)-biotin nick end labeling (TUNEL) assay (APO-Direct, BD Biosciences, Franklin Lake, N.J.) was performed according to the manufacturer's protocol. Briefly, paraformaldehyde-fixed cells were washed and incubated with staining solution (10 μl of TdT reaction buffer, 0.75 μl of TdT enzyme, and 8 μl of FITC-dUTP) overnight. The following day, cells were rinsed and resuspended in 1 ml of PI/RNase solution. Following incubation in the dark for 30 minutes at room temperature, flow cytometry was performed to obtain the percentage of apoptotic cells. Cell cycles were analyzed with a program combined with the FCM (Multicycle, Phoenix Flow System, San Diego, Calif.).

[4] = test system: MCF7/Her18 cells; test: as above; format: cell-based, human
Text: as §2

[5] = cited from earlier work

Compound: Cc1ccc(-c2cc(C(F)(F)F)nn2-c2ccc(S(N)(=O)=O)cc2)cc1 [Celecoxib, 4-[5-(4-methylphenyl)-3-(trifluoromethyl)-1H-pyrazol-1-yl]benzenesulfonamide]
- Prostaglandin E2 production [1]: 116.7^§ pg/ml
- Prostaglandin E2 production [2]: 16.7^§ pg/ml
- cell cycle effect ([3]; 72-hour treatment): blocked more cells at the G1 checkpoint than Ad-mda7
- apoptosis (Annexin V/FITC, TUNEL) ([3]; 72-hr treatment): promoted apoptosis
- cell cycle effect ([4]; 72-hour treatment): blocked more cells at the G1 checkpoint than Ad-mda7
- apoptosis (Annexin V/FITC, TUNEL) ([4]; 72-hr treatment): promoted apoptosis
- effective half-life ([5]; fasted conditions): roughly 11 hours
- time of peak plasma levels after an oral dose ([5]; in vivo, po): roughly 3 hours
- delay of plasma levels with a high fat meal ([5]; in vivo): 1 to 2 h
- increase in total absorption with a high fat meal ([5]; in vivo): 10-20%
- dose excreted in feces ([5]; single dose): 57%
- dose excreted in the urine ([5]; single dose): 27%
